Drawing on PubChem BioAssay (NCI), this text covers TGI and GI50 for 9 compounds.

Among the test systems are ACHN renal; CAKI-1 renal; EKVX NSCLC; HCT-15 colon; HL-60(TB) leukemia; HOP-92 NSCLC; M14 melanoma; NCI-H226 lung; SK-OV-3 ovarian; UACC-257 melanoma.
Assay in all cases: NCI-60 cell line screen, 48 h

Values joined by “and” are separate entries in the source; they are usually repeats but may differ in a detail not shown here. Equal entries are not always repeated.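 These data come from cells grown in 96-well plates and exposed to compound for 48 hours at five concentrations. Abbreviation: GI50, concentration required for 50% inhibition of growth. TGI: concentration producing complete growth inhibition.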

As for `Cc1ccc(NC(=O)CC/C(CC(=O)C(C)(C)C)=N/NC(=O)c2cc3ccccc3cc2O)cc1C`, the TGI with ACHN renal, with CAKI-1 renal, with EKVX NSCLC, with HCT-15 colon, in the assay with HL-60(TB) leukemia and with HOP-92 NSCLC was more than 100 µM throughout. Moreover, the TGI in the assay on M14 melanoma is 96 µM; in the assay on NCI-H226 lung, more than 100 µM; with SK-OV-3 ovarian it was more than 100 µM; with UACC-257 melanoma it was more than 100 µM.

For `CC1(C)N=C(/C(Cl)=[N+](/[O-])C(=O)c2ccc(Cl)cc2)C(C)(C)N1O`, the TGI in the assay on ACHN renal was more than 100 µM; in the assay with CAKI-1 renal, 42.7 µM; with EKVX NSCLC it was more than 100 µM; in the assay on HCT-15 colon, 35.8 µM; in the assay with HL-60(TB) leukemia it was 60.7 µM; in the assay with HOP-92 NSCLC, 31.4 µM. The TGI is 32.1 µM with M14 melanoma, 72.6 µM in the assay with NCI-H226 lung, more than 100 µM in the assay with SK-OV-3 ovarian and 38.1 µM with UACC-257 melanoma.

On to `COC(=O)C(Cc1ccccc1)NC(=O)C(CNC(=O)OCc1ccccc1)C(=O)OCc1ccccc1` (configuration not stated), for which the TGI is more than 100 µM in the assay on CAKI-1 renal; more than 100 µM in the assay on HCT-15 colon; more than 100 µM in the assay with HL-60(TB) leukemia; more than 100 µM in the assay with HOP-92 NSCLC; > 100 µM and 26.8 µM in the assay on M14 melanoma; more than 100 µM with NCI-H226 lung. This compound yielded a TGI with SK-OV-3 ovarian of more than 100 µM. Further, the GI50 is > 100 µM and 21.6 µM in the assay with HL-60(TB) leukemia; > 100 µM and 31.9 µM in the assay on HOP-92 NSCLC; > 100 µM and 10.2 µM with M14 melanoma.

Consider `COc1cc(C=O)cc(C=Nc2ccc(Br)cc2)c1O`, for which the TGI with ACHN renal is 49.4 µM; in the assay on CAKI-1 renal, 42 µM; in the assay on EKVX NSCLC, more than 100 µM; in the assay with HCT-15 colon it was more than 100 µM; in the assay on HL-60(TB) leukemia, 56.8 µM; in the assay with HOP-92 NSCLC, 39.6 µM. The TGI is 14.2 µM in the assay with M14 melanoma, 8.19 µM in the assay on NCI-H226 lung, 7.83 µM with SK-OV-3 ovarian and 34 µM in the assay on UACC-257 melanoma.

In the case of `CC1CC(c2ccccc2)=Nc2ccccc2S1` (configuration not stated), the TGI in the assay on ACHN renal, in the assay with CAKI-1 renal, in the assay with EKVX NSCLC, with HCT-15 colon, with HL-60(TB) leukemia and with HOP-92 NSCLC was more than 100 µM in each case. For the same compound, the TGI in the assay on M14 melanoma, with NCI-H226 lung, in the assay on SK-OV-3 ovarian and in the assay with UACC-257 melanoma was more than 100 µM each time.

On to `O=C(N/N=C/c1ccccc1)c1c(F)c(F)c(F)c(F)c1F`, for which the TGI with ACHN renal, with CAKI-1 renal, in the assay with EKVX NSCLC, in the assay on HCT-15 colon, in the assay on HL-60(TB) leukemia and in the assay with HOP-92 NSCLC was more than 100 µM each time. Moreover, the TGI in the assay on M14 melanoma, in the assay on NCI-H226 lung, in the assay on SK-OV-3 ovarian and in the assay on UACC-257 melanoma was more than 100 µM throughout.

For `CCC12CCC[C@@]13C=C[C@H](O3)C(C)(C)C2=O` (some centres not stated), the TGI in the assay with ACHN renal, in the assay with CAKI-1 renal, in the assay with EKVX NSCLC, in the assay on HCT-15 colon, in the assay on HL-60(TB) leukemia and with M14 melanoma was more than 100 µM each time. The TGI in the assay with NCI-H226 lung, in the assay with SK-OV-3 ovarian and in the assay on UACC-257 melanoma was more than 100 µM throughout.

As for `[C-]#[O+].[Cl][Sn]([Cl])[Cl].[Cl][Sn]([Cl])[Cl].[Pt].c1cnc2c(c1)ccc1cccnc12`, the TGI in the assay with CAKI-1 renal is more than 100 µM; with EKVX NSCLC, 44.4 µM; in the assay on HCT-15 colon it was more than 44 µM; with HL-60(TB) leukemia, 7.95 µM; with HOP-92 NSCLC, 51.5 µM; with NCI-H226 lung, more than 42.4 µM. Further, the TGI in the assay on SK-OV-3 ovarian was 27.8 µM; in the assay with UACC-257 melanoma, more than 100 µM.

For the compound `O=C1c2ccccc2-c2c1c1ccccc1c(=O)n2CCCNCCNCCCn1c2c(c3ccccc3c1=O)C(=O)c1ccccc1-2`, the GI50 was less than 0.01 µM in the assay with ACHN renal; 1.23 µM in the assay on EKVX NSCLC; 0.0831 µM with HCT-15 colon; 3.51 µM with HL-60(TB) leukemia; 0.288 µM in the assay with M14 melanoma; less than 0.0267 µM in the assay with NCI-H226 lung. Moreover, the GI50 was 1.33 µM in the assay on SK-OV-3 ovarian and 1.24 µM in the assay with UACC-257 melanoma. Also, the TGI was 1.31 µM in the assay on ACHN renal; 2.88 µM with EKVX NSCLC; 0.56 µM with HCT-15 colon; more than 100 µM in the assay with HL-60(TB) leukemia; 1.93 µM in the assay on M14 melanoma; 1.98 µM in the assay on NCI-H226 lung. The compound also yielded a TGI in the assay with UACC-257 melanoma of 3.47 µM.
